Assay results published in ChEMBL document CHEMBL1938307, “Synthesis, pharmacological evaluation and docking studies of N-(benzo[d]thiazol-2-yl)-2-(piperazin-1-yl)acetamide analogs as COX-2 inhibitors” (Bioorg Med Chem Lett, 2012).

What was measured:
Rattus norvegicus [1] = experiment: Antiinflammatory activity in Wistar rat assessed as inhibition of carrageenan-induced paw edema at 30 mg/kg after 2 hrs; assay type: functional
Rattus norvegicus [2] = experiment: Ulcerogenic effect in Wistar rat assessed as lesions in stomach area at 90 mg/kg after 6 hrs; assay type: toxicity, organism-based; design: dose 90 mg/kg; conditions: in vivo
Rattus norvegicus [3] = experiment: Ulcerogenic effect in Wistar rat assessed as gastric bleeding at 90 mg/kg after 6 hrs; assay type: toxicity, organism-based, Stomach; design: dose 90 mg/kg; conditions: in vivo

SMILES	inhibition in vivo at 30 mg/kg (Rattus norvegicus [1])	UI (Rattus norvegicus [2])	UI (Rattus norvegicus [3])
CCN1CCN(CC(=O)Nc2nc3cc(OC)ccc3s2)CC1	17.4%	–	–
CCN1CCN(CC(=O)Nc2nc3cc([N+](=O)[O-])ccc3s2)CC1	17.4%	–	–
O=C(CN1CCCNCC1)Nc1nc2ccccc2s1	8.6%	–	–
O=C(CN1CCNCC1)Nc1nc2ccccc2s1	41.3%	1.24	1.24
COc1ccc2sc(NC(=O)CN3CCN(c4ccccc4)CC3)nc2c1	21.7%	–	–
O=C(CN1CCNCC1)Nc1nc2cc([N+](=O)[O-])ccc2s1	12.3%	–	–
O=C(CN1CCN(c2ccccc2)CC1)Nc1nc2cc([N+](=O)[O-])ccc2s1	34.8%	1.21	1.21
O=C(CN1CCCNCC1)Nc1nc2cc([N+](=O)[O-])ccc2s1	17.4%	–	–
CS(=O)(=O)c1ccc(C2=C(c3ccccc3)C(=O)OC2)cc1 [ROFECOXIB]	81%	–	–
CCN1CCN(CC(=O)Nc2nc3ccccc3s2)CC1	13%	–	–
COc1ccc2sc(NC(=O)CN3CCNCC3)nc2c1	2.17%	–	–
COc1ccc2cc([C@H](C)C(=O)O)ccc2c1 [NAPROXEN]	71.7%	2.5	2.5
O=C(CN1CCN(c2ccccc2)CC1)Nc1nc2ccccc2s1	23.9%	–	–
COc1ccc2sc(NC(=O)CN3CCCNCC3)nc2c1	17.4%	–	–
